Experimental data taken from patent US11179306B2, “Use of salicylic acid derivatives as prodesquamating active agent” (L'OREAL, priority 2013, dated 2021).

Assays:
[1] = test system: epidermis of viable human skin; test: Tolerance of the skin: morphology of the epidermis of treated excised human skin; type: cell-based; settings: 5% by weight in ethanol, compared with control skin
Method: (§1) The protocol consists in applying the test solutions to skin samples maintained under survival conditions. The products tested are applied in a proportion of 15 μl per 1 cm^2 sample and are not rinsed off. Application is carried out twice, at D0 and then, 24 hours later, at D1. The morphology of the stratum corneum is analysed 48 hours after the first application, at D2, on a biopsy.
In order to validate the desquamating properties of the compounds A and B and to evaluate the tolerance of the skin to these treatments, the morphology of a control skin was in addition compared with the morphology of the skin samples treated with A and with B present in a content of 5% by weight in ethanol, according to the protocol described above.

[2] = test system: stratum corneum of viable human skin; test: Desquamating activity: cohesion of the stratum corneum on excised human skin maintained under survival conditions; type: cell-based; settings: for Score (mean ± sd, n = 6), decrease in the cohesion of the stratum corneum / Appearance of the stratum corneum compared with control skin: 5% by weight in ethanol; for Score (mean ± sd, n = 6), decrease in the cohesion of the stratum corneum: 15 μl per 1 cm^2, applied at D0 and D1, histology at D2, score 0 (absence of modification) to 4 (very large decrease with exfoliation), 6 donors; for Appearance of the stratum corneum compared with control skin: morphology comparison; for Decrease in the cohesion of the stratum corneum with respect to the control skin (desquamating effect): at 5%, paired Student test, p<0.05
Method: The study is targeted at detecting the desquamating potential of the active agents in simplex solution by observation of the cohesion of the stratum corneum.
The keratolytic effect on excised skin maintained under survival conditions at 5% by weight in ethanol was evaluated. The study was carried out on viable human skin resulting from abdominal or breast reduction plastic surgery (6 donors).
as §1
The solutions applied are the following: • compound A of Example 1, at 5% by weight in ethanol, and • compound B of Example 2, at 5% by weight in ethanol.
By way of comparison, no solution is applied to some samples, referred to as controls.
The histological analysis of the horny layer is carried out on a skin section after staining with hemalaun-eosin (magnification 400).
6 samples were used for each of the tests (control, compound A and compound B). A paired Student test (p<0.05) was carried out in order to evaluate the significance of the difference with respect to the control.

Compound: O=C(O)c1c(O)cccc1CCCCCCCCO [Compound A]
- Morphology of the epidermis (tolerance of the skin) [1]: preservation of the morphology of the epidermis
- Score (mean ± sd, n = 6), decrease in the cohesion of the stratum corneum [2]: 1.85 ± 0.4
- Appearance of the stratum corneum compared with control skin [2]: decrease in the cohesion of the stratum corneum
- Decrease in the cohesion of the stratum corneum with respect to the control skin (desquamating effect) [2]: statistically significant

Compound: O=C(O)CCCCCCCc1cccc(O)c1C(=O)O [Compound B]
- Morphology of the epidermis (tolerance of the skin) [1]: preservation of the morphology of the epidermis
- Score (mean ± sd, n = 6), decrease in the cohesion of the stratum corneum [2]: 1.75 ± 0.2
- Appearance of the stratum corneum compared with control skin [2]: decrease in the cohesion of the stratum corneum
- Decrease in the cohesion of the stratum corneum with respect to the control skin (desquamating effect) [2]: statistically significant
